Where two headings read alike, the source gives them in different places. Marks after values point to notes of the source that are not given here.
Experiments:
[1] = tested on: differentiated Caco-2 cells; experiment: WST-1 cytotoxicity assay, viability of differentiated Caco-2 cells after 2 h exposure; type: cell-based, Human; settings: for concentration that did not significantly affect cell viability: for the mixture: concentration of each AGE
Procedure: (§1) Human colon carcinoma cells (Caco-2 cells) were obtained from the American Type Culture Collection (ATCC, Rockville, MD, USA). Caco-2 cells were cultured in complete culture medium, composed of DMEM GlutaMAX with 10% FBS (v/v), 1% P/S (v/v), and 1% NEAA (v/v) at 37 °C in a 5% (v/v) CO2 incubator. In this study, Caco-2 cells within passages 10–15 were utilized.
The WST-1 assay was used to quantify the viability of differentiated Caco-2 cells upon exposure to the individual AGEs and their equimolar mixture. To this end, Caco-2 cells were seeded in 96-well plates at 3 × 10^4 cells/well (100 μL) and incubated at 37 °C under 5% (v/v) CO2 for 20 days. The complete culture medium was refreshed on each alternate day. After full differentiation, the culture medium was removed, and the cells were washed with HBSS (containing 1% (v/v) HEPES) twice on the testing day. The same volume (100 μL) of HBSS containing a series of concentrations of the different individual test compounds or of a mixture containing all 10 AGEs was added from a 20-times-concentrated stock solution in HBSS. The test concentrations were designed based on the estimated daily intake of total AGEs (0.55–0.66 mg/(kg·day)) and high-exposure scenarios (1.4–1.8 mg/(kg day)). […] After exposure for 2 h, the absorbance at 440 and 620 nm was measured in a plate spectrophotometer (Molecular Devices, San Jose, CA, USA, Spectra Max M2). After measurement, the cell viability was calculated as cell viability (%)=(Atested 440 nm−Atested 620 nm)/(Acontrol 440 nm−Acontrol 620 nm)×100

Caco-2 cell monolayer = experiment: Accumulation of AGEs in the Caco-2 cell monolayer after transport experiment; type: in vitro ADME, Human; settings: mixture, each AGE 100 μmol/L, 2 h; for percentage of the amount added at the apical side at t = 0: accumulation (intracellular): standard treatment
Procedure: After the transport experiment, the cell monolayer on the inset membrane was washed three times with HBSS and three times with PBS. […] The samples were subsequently centrifuged at 16 000g for 20 min at 4 °C, and the supernatant was collected for further analysis by LC-MS.
The analytical column was maintained at 40 °C throughout the quantification process. A multistep binary gradient system of water containing 0.1% (v/v) formic acid (solvent A) and acetonitrile containing 0.1% (v/v) formic acid (solvent B) was used. In the whole gradient program, the total proportion of solvents A and B is always equal to 100%. […] The initial flow rate was set to 0.30 mL/min. Subsequently, it was reduced to 0.25 mL/min at 0.3 min, which was kept until 10 min. Afterward, there was a gradual decrease, reaching 0.15 mL/min at 11 min, and this rate was maintained until 12 min. […] Between 1 and 11 min of gradient running, the line was set to MS, and for the other time periods, the line was set to waste. The retention time and mass spectrometry parameters of individual AGEs are listed in Table S1 and the chromatograms of the samples are shown in Figure S1.

[2] = Transport of AGE mixture across Caco-2 cell layer (transwell, apical to basolateral); type: in vitro ADME, Human; settings: human; for recovery at 2 h, 100 μmol/L: read-out: percentage of the amount added at the apical side at t = 0: recovery; for Papp at 120 min, 100 μmol/L: data from 120 min
Procedure: as §1
(§2) Caco-2 cells were cultured until reaching 50%–60% confluence (undifferentiated Caco-2 cells), followed by trypsinization. Then, cells were seeded at 3 × 10^4 cells per insert in 100 μL of complete culture medium into the transwell inserts of a 24-well transwell plate, and 600 μL of complete culture medium was added to the basolateral compartments. In both the apical and basolateral compartments, the medium was renewed every other day. After 2 weeks, the transepithelial electrical resistance (TEER) value was measured using a Millicell ERS-2 Electrical Resistance System (Burlington, MA, USA) every other day. Only wells with a TEER value of >400 Ω/cm^2 were used for transport experiments. Moreover, the TEER value was measured before and after the transport experiment to ascertain that the Caco-2 cell layer remained intact during the whole transport experiment.
(§3) Transport experiments were performed after 20 days of differentiation of the Caco-2 cells. The culture medium was replaced with HBSS (containing 1% (v/v) HEPES) 30 min prior to testing in both the apical and basolateral compartments. After the 30 min preincubation, 100 μL of HBSS containing a mixture of the 10 different AGEs including CML, CEL, GALA, argpyrimidine, MG-H1, GOLD, GOLA, MOLD, pentosidine, and pyrraline, each at 100 μmol/L, was added to the apical compartment after removing the preincubation medium, while the basolateral medium was replaced by 600 μL of HBSS. […] At 120 min, a 10 μL sample from the apical side was taken for calculating apical side retention (nontransported percentage).
(§4) The apparent permeability coefficient (Papp) value was calculated according to the methodology described by Yee.
(§5) AGEs were quantified by LC-MS using a Shimadzu Nexera XR LC-40D XR UPLC system (Kyoto, Japan) equipped with a UPLC Amide column (100 mm × 2.1 mm, 1.7 μm) without derivatization coupled with a Shimadzu LCMS-8045 triple quadrupole mass spectrometer (Kyoto, Japan). The analytical column was maintained at 40 °C throughout the quantification process. A multistep binary gradient system of water containing 0.1% (v/v) formic acid (solvent A) and acetonitrile containing 0.1% (v/v) formic acid (solvent B) was used. In the whole gradient program, the total proportion of solvents A and B is always equal to 100%. The gradient program was designed as follows: 75% solvent B to 12.5% solvent B from 0 to 10 min, followed by 12.5% solvent B from 10 to 11 min. […] The initial flow rate was set to 0.30 mL/min. Subsequently, it was reduced to 0.25 mL/min at 0.3 min, which was kept until 10 min. Afterward, there was a gradual decrease, reaching 0.15 mL/min at 11 min, and this rate was maintained until 12 min. […] Between 1 and 11 min of gradient running, the line was set to MS, and for the other time periods, the line was set to waste. The retention time and mass spectrometry parameters of individual AGEs are listed in Table S1 and the chromatograms of the samples are shown in Figure S1.

Caco-2 cell layer = experiment: as above; type: in vitro ADME, Human; settings: mixture, each AGE 100 μmol/L, 2 h; for percentage of the amount added at the apical side at t = 0: apical side (nontransported) / percentage of the amount added at the apical side at t = 0: basolateral side (transported): standard treatment
Procedure: as §1, §2, §3, §4, §5

PepT1 = experiment: as above; type: in vitro ADME, Human; settings: human, mixture, each AGE 100 μmol/L; for recovery at 2 h, 100 μmol/L: Caco-2, with Gly-Sar 10 mmol/L (apical compartment), Gly-Sar 10 mmol/L, read-out: percentage of the amount added at the apical side at t = 0: recovery; for Papp at 120 min, 100 μmol/L: Caco-2, with Gly-Sar 10 mmol/L (apical), 10 mmol/L Gly-Sar apical (PepT1 inhibition), data from 120 min
Procedure: as §1, §2, §3, §4, §5

[3] = Caco-2, 4 °C, mixture, each AGE 100 μmol/L
[4] = Caco-2, cytochalasin D pretreatment, mixture, each AGE 100 μmol/L
[5] = Caco-2, standard treatment (37 °C), equimolar mixture of 10 AGEs, each 100 μmol/L apical
[6] = Caco-2, standard treatment, mixture, each AGE 100 μmol/L
[7] = Caco-2, cytochalasin D 1 μg/mL, 30 min apical preincubation, mixture, each AGE 100 μmol/L

Compound	concentration that did not significantly affect cell viability [1] [µmol/L]	percentage of the amount added at the apical side at t = 0: accumulation (Caco-2 cell monolayer; 4 °C)	percentage of the amount added at the apical side at t = 0: accumulation (Caco-2 cell monolayer; Gly-Sar 10 mmol/L)	percentage of the amount added at the apical side at t = 0: accumulation (Caco-2 cell monolayer; cytochalasin D pretreatment)	recovery at 2 h, 100 μmol/L [2, 3] [%]	Papp at 120 min, 100 μmol/L [2, 3] [×10⁻⁶ cm/s]	recovery at 2 h, 100 μmol/L [2, 4] [%]	Papp at 120 min, 100 μmol/L [2, 5] [×10⁻⁶ cm/s]	recovery at 2 h, 100 μmol/L [2, 6] [%]	Papp at 120 min, 100 μmol/L [2, 7] [×10⁻⁶ cm/s]	percentage of the amount added at the apical side at t = 0: apical side (Caco-2 cell layer; 4 °C)	percentage of the amount added at the apical side at t = 0: basolateral side (Caco-2 cell layer; 4 °C)	percentage of the amount added at the apical side at t = 0: apical side (Caco-2 cell layer; Gly-Sar 10 mmol/L)	percentage of the amount added at the apical side at t = 0: basolateral side (Caco-2 cell layer; Gly-Sar 10 mmol/L)	percentage of the amount added at the apical side at t = 0: apical side (Caco-2 cell layer; cytochalasin D pretreatment)	percentage of the amount added at the apical side at t = 0: basolateral side (Caco-2 cell layer; cytochalasin D pretreatment)	percentage of the amount added at the apical side at t = 0: apical side (nontransported) (Caco-2 cell layer)	percentage of the amount added at the apical side at t = 0: basolateral side (transported) (Caco-2 cell layer)	recovery at 2 h, 100 μmol/L (PepT1) [%]	Papp at 120 min, 100 μmol/L (PepT1) [×10⁻⁶ cm/s]	further results
Cc1c[n+](CCCC[C@H](N)C(=O)O)cn1CCCC[C@H](N)C(=O)O [MOLD, methylglyoxal–lysine dimer]	≤ 1500	0.0 ± 0.0 ^a %	0.0 ± 0.1 ^a %	0.0 ± 0.1 ^a %	83.1 ± 6.5	0.057	91.7 ± 12.6	0.098	90.8 ± 7.9	0.34	83.0 ± 6.5 ^b %	0.1 ± 0.1 ^b %	93.5 ± 7.2 ^a %	0.3 ± 0.2 ^b %	90.8 ± 12.2 ^ab %	0.8 ± 0.6 ^a %	90.6 ± 7.7 ^ab %	0.2 ± 0.2 ^b %	93.8 ± 7.2	0.11	
Cc1nc(NCCC[C@H](N)C(=O)O)nc(C)c1O [argpyrimidine]	≤ 500	0.0 ± 0.0 ^b %	0.5 ± 0.2 ^a %	0.5 ± 0.3 ^a %	87.4 ± 5.4	0.099	94.7 ± 5.4	0.145	91.8 ± 5.9	0.395	87.1 ± 5.4 ^b %	0.2 ± 0.1 ^b %	93.8 ± 5.0 ^a %	0.3 ± 0.1 ^b %	93.3 ± 5.2 ^a %	0.9 ± 0.6 ^a %	91.2 ± 5.9 ^ab %		94.6 ± 5.2	0.141	percentage of the amount added at the apical side at t = 0: accumulation (intracellular) (Caco-2 cell monolayer): 0.2 ± 0.2 ^b %
N[C@@H](CCCC[n+]1cccc2[nH]c(NCCC[C@H](N)C(=O)O)nc21)C(=O)O [pentosidine]	≤ 500	0.0 ± 0.0 ^a %	0.0 ± 0.0 ^a %	0.0 ± 0.0 ^a %	83.3 ± 6.6	0.054	92.6 ± 14.5	0.083	96.9 ± 12.3	0.278	83.2 ± 6.7 ^a %	0.1 ± 0.1 ^b %	92.8 ± 10.4 ^a %	0.1 ± 0.1 ^b %	95.0 ± 14.2 ^a %	0.7 ± 0.4 ^a %	89.1 ± 12.2 ^a %		93 ± 10.5	0.061	
N[C@@H](CCCCn1c(C=O)ccc1CO)C(=O)O [pyrraline]		0.0 ± 0.0 ^b %	0.1 ± 0.0 ^a %	0.2 ± 0.1 ^a %	87.1 ± 6.1		90.3 ± 4.9	0.1	89 ± 5.6	0.334	86.9 ± 6.0 ^a %	0.1 ± 0.1 ^b %	86.4 ± 2.8 ^a %	0.2 ± 0.1 ^b %	89.4 ± 4.7 ^a %	0.8 ± 0.5 ^a %	88.6 ± 5.5 ^a %	0.2 ± 0.1 ^b %	86.7 ± 2.8	0.08	effect on cell viability [1]: did not affect cell viability up to the highest concentration tested; percentage of the amount added at the apical side at t = 0: accumulation (intracellular) (Caco-2 cell monolayer): 0.1 ± 0.1 ^a %

From PMC12426922, “Fingerprinting the Intestinal Transport of Low-Molecular-Mass Advanced Glycation End-Products (AGEs) Using a Caco‑2 Transwell Model” (Journal of Agricultural and Food Chemistry, 2025)
